Literature values, collected in patent US20240077492A1, “ARRAY-BASED PEPTIDE LIBRARIES FOR THERAPEUTIC ANTIBODY CHARACTERIZATION” (Cowper Sciences Inc., priority 2016, published 2024).

Conditions: background statement

## Remicade: one of the most prescribed antibody therapeutics
  effective in fraction of the patient population: 25%
